Blank lines part the entries; values can stand above or below the compound they belong to.
Key:
Assay type in all cases: cell-based, human
[1] = tested on: total (truncated + full length) C7 in RDEB_L5 cells; experiment: AlphaLISA quantification of total C7 in RDEB_L5 cells; details: for EC50: Homo sapiens, total C7 AlphaLISA, 48 h, 20 ng/mL TGFß2, relative EC50, mean ± SD, read-out: Increase in C7 levels EC50; for Increase in C7 levels Emax, % vs baseline: 20 ng/mL TGFß2
Protocol: (§1) The AlphaLISA assay was developed in-house by using the biotin-conjugated rabbit polyclonal antibody anti-C7 (LSBio LS-298147) and conjugating the acceptor beads (PerkinElmer 6772001) to a monoclonal anti-Collagen type VII antibody produced in mouse, clone LH7.2 (Thermo MA5-13,432). Formulation of the mAb clone LH7.2 was exchanged to PBS and concentrated 5 × by using Amicon® Ultra-0.5 centrifugal filters up to 1 mg/ml. The conjugation procedure was carried out according to the protocol provided by PerkinElmer.
(§2) For compound treatment in RDEB patient-derived transformed keratinocytes, 5,000 cells were plated in 20 µL of supplemented KGM media containing 20 ng/mL TGFβ2 (SIGMA GF113) without GA-1000 in 384-well cell culture plates (Greiner 781098). The day after, 5 µL of test compounds prepared 5 × in supplemented KGM without GA-1000 were added over cells and incubated for 48 h at 37 °C and 5% CO2. For compound treatment in HEK293^R578X, 10,000 cells were plated in 20 μL of DMEM (High Glucose, 2 mM L-Glutamine, sodium pyruvate, and FBS 10%) in 384-well cell culture plates (Greiner 781,098,). The day after, 5 μL of test compounds prepared 5 × in DMEM complete medium were added over cells and incubated for 48 h at 37 °C and 5% CO2.
(§3) After the treatment process, 2.5 µL of RIPA buffer 10 x (Abcam ab156034) were added over the […] of cells for 20 min at room temperature to obtain a complete cell lysis. Then, 2 μL of sample (i.e., cell lysate with supernatant) were transferred to the AlphaLISA plate (PerkinElmer 6,059,340) containing […] of antibodies mixture ([…] of acceptor Beads-Ab and […] of biotin-rAb) prepared in AlphaLISA buffer 1 x (PerkinElmer AL00F). The reaction was incubated for 90 min at room temperature. Finally, 10 μL of […] of donor beads (PerkinElmer 6760002,) were added to the reaction under subdued light, mixed gently, and incubated for 3 h at room temperature. AlphaLISA signal was detected with an Envision microplate reader (Perkin Elmer) using the following setting: Filter: AlphaScreen, Excitation time: 180 ms, Integration time: 300 ms.
(§4) Statistical analyses were performed using GraphPad Prism v. 7.04 (La Jolla, California). Results are shown as mean ± SD of experimental replicates. Dose–response curves to assess compound treatment effect were plotted in a four-parameter logistic model. Relative EC50, representing the total drug concentration producing a 50% effect, was calculated in the four-parameter logistic equation. Comparisons of collagen protein and mRNA expression in different experimental conditions were made using ANOVA, followed by a post hoc test. statistical significance was considered with p values < 0.05.

[2] = tested on: total C7 in HEK293^R578X cells; experiment: AlphaLISA quantification of total C7 in recombinant HEK293^R578X cells; details: for EC50: Homo sapiens, total C7 AlphaLISA, 48 h, relative EC50, mean ± SD, read-out: Increase in C7 levels EC50
Protocol: as §1, §2, §3, §4

[3] = tested on: truncated and full-length C7 in RDEB_L1, RDEB_L5 and HEK293^R578X cells; experiment: Western blot detection of truncated and full-length C7
Protocol: For western blot, RDEB or normal human keratinocytes were lysed in protein extraction buffer (50 mM Tris–HCl [pH 7.5], 100 mM NaCl, 1% Nonidet P-40, and 4 mM EDTA) containing proteinase inhibitors cocktail (Complete Mini, EDTA free; Roche Diagnostics, Mannheim, Germany). Lysates were incubated for 30 min on ice and centrifuged at 15,000 g for 30 min at 4 °C. Supernatants were then collected and concentrated by ultrafiltration using Amicon Ultra columns (10 kDa; Millipore, Ireland). Protein concentrations were measured using the Bradford assay (Bio-Rad, Hercules, CA). For each sample, […] total protein was resolved on NuPAGE Novex 3%–8% Tris–Acetate gel electrophoresis (Invitrogen, Carlsbad, CA) and electrotransferred to nitrocellulose membranes (Invitrogen, Carlsbad, CA). For type VII collagen analysis, blots were probed with a monospecific polyclonal anti-C7 antibody (a generous gift from Dr. A. Nystrom, University of Freiburg). Invitrogen anti-MDH1 polyclonal antibody (PA550446, 1:1000) was used to detect MDH1. Standard antibodies against a reference protein were used as a loading control, as indicated. Visualization of the resulting signal was performed by incubating with horseradish peroxidase (HRP)- conjugated anti-rabbit antibody (Amersham, Burlington, MA) and West Pico Chemiluminescent Substrate (Pierce, Rockford, IL).

[4] = tested on: COL7A1 mRNA in RDEB_L1 and RDEB_L5 cells; experiment: Real-time qPCR of COL7A1 mRNA; details: 24 h, 20 ng/mL TGFβ2
Protocol: For real-time qPCR, 15,000 RDEB keratinocytes or normal human epidermal keratinocytes were plated in a 96-well cell culture plate in 80 µL of supplemented KGM medium without GA-1000 and containing 20 ng/mL of TGFβ2 for RDEB keratinocytes, and cells were incubated overnight at 37 °C and 5%CO2. The day after, cells were treated with 20 µL of test compounds prepared 5 × in supplemented KGM without GA-100, for 24 h at 37 °C and 5% CO2. For the mRNA extraction, the medium was removed, cells were washed with PBS, and conserved at -80 °C until the total RNA extraction.
RNA extraction was conducted using the RNeasy 96 Kit (4) (Qiagen 74181) following the manufacturer’s instructions. Total RNA was recovered in 50 µL of RNase-free water and the yield of extracted RNA was quantified using a NanoDrop 2000 Spectrophotometer (ThermoFisher). Purified RNA was stored at -80 °C until RT-qPCR.
Real time-qPCR was performed by using the iTaq Universal Probes One-Step Kit, (cat. 1725140, Bio-Rad) and according to the manufacturer’s instructions. […] RT-qPCR was performed to quantify the COL7A1 mRNA (exon 64) expression.
For COL7A1 quantitative gene expression, human GAPDH was used as the endogenous control. Results were analyzed with the QuantStudio Real-Time PCR Software.

EC50 [1]: 420 ± 390 µM
SMILES: CNC(C)C1CCC(N)C(OC2C(N)CC(N)C(OC3OCC(C)(O)C(NC)C3O)C2O)O1 (stereo not drawn) [Gentamicin, reference compound]
Increase in C7 levels Emax, % vs baseline ([1]; at 1600 µM): 41 ± 3.3 at 1600 % vs baseline
EC50 [2]: 4500 ± 2900 µM
Increase in C7 levels Emax, % vs baseline ([2]; at 4100 µM): 89 ± 17 at 4100 % vs baseline
concentrations showing some upregulation of truncated and full-length forms of C7 in western blot ([3]; western blot): > 1 mM

SMILES: C#Cc1cc(-c2ccncc2)c(-c2cccc(F)c2)nc1N [Compound 7]
EC50 [1]: 23 ± 11 µM
Increase in C7 levels Emax, % vs baseline ([1]; at 50 µM): 293 ± 58 at 50 % vs baseline
EC50 [2]: 60 ± 4.6 µM
Increase in C7 levels Emax, % vs baseline ([2]; at 100 µM): 96 ± 35 at 100 % vs baseline
C7 products induced, western blot ([3]; RDEB_L1 and HEK293^R578X cells, 50 μM compound 7, 50 μM chuangxinmycin, 100 μM 3-methyl-chuangxinmycin): partially upregulated full-length C7
levels of COL7A1 mRNA (qPCR) [4]: did not result in an increase in C7 mRNA levels

EC50 [1]: 4.7 ± 0.8 µM
SMILES: NC(=O)Cn1ccc2ccc(-c3cnc(N)c(C(=O)NC4C5CC6CC4CC(O)(C6)C5)n3)cc21 (stereo not drawn) [Compound 1]
Increase in C7 levels Emax, % vs baseline ([1]; at 12.5 µM): 1401 ± 384 at 12.5 % vs baseline
C7 products induced, western blot ([3]; RDEB_L1 cells, 10 μM): only upregulating the truncated form of C7
levels of COL7A1 mRNA (qPCR) [4]: TGFβ2 was required for full upregulation
